Data on 7 molecules can be found in patent US20190375778A1, “ADENOSINE DERIVATIVES FOR USE IN THE TREATMENT OF CANCER” (NuCana plc, priority 2016, published 2019).

pIC50: −log10 of the molar value.

Test [1] deals with FM3A. The experiment in a line: Cytotoxicity, FM3A. Type of test: cell-based, murine. To be noted: Mus musculus, read-out: absolute IC50, FM3A. The text has this: (§1) Lovo: cell line derived from a metastatic site in a patient with colon cancer MCF7: human oestrogen sensitive mammary epithelial cell line PC3: human prostate cancer cell line A549: cancerous lung tissue derived cells L1210: lymphoblast cell line derived from a mouse with lymphocytic leukaemia FM3A: mammary carcinoma murine cells CEM: human T-lymphoblasts, derived from the blood of a patient with acute lymphoblastic leukaemia HeLa: epithelial cells from a patient with cervical adenocarcinoma

Test [2] concerns Murine leukemia L1210. The experiment in a line: Cell proliferation (Coulter count) assay, L1210. The test is classed as cell-based. The settings on record: Mus musculus, 48 h, read-out: absolute IC50, L1210.
Source text: as §1
(§2) Murine leukemia L1210, human T-lymphocyte CEM, and human cervix carcinoma HeLa cells were obtained from the American Type Culture Collection (ATCC) (Rockville, Md.). All cells were maintained in Dulbecco's modified Eagle's medium (DMEM) (Invitrogen, Carlsbad, Calif.) with 10% fetal bovine serum (FBS) (Biochrom AG, Berlin, Germany), 10 mM Hepes, and 1 mM sodiumpyruvate (Invitrogen). Cells were grown at 37° C. in a humidified incubator with a gas phase of 5% CO2. Monolayer cells (HeLa and […]) were seeded in 96-well microtiter plates (Nunc, Roskilde, Denmark) at 10 000 cells/well. After 24 h, an equal volume of fresh medium containing the test compounds was added. On day 5, cells were trypsinized and counted in a Coulter counter (Analis, Suarlee, Belgium). Suspension cells (L1210, CEM) were seeded in 96-well microtiter plates (Nunc) at 60 000 cells/well in the presence of a given amount of the test compounds. The cells were allowed to proliferate for 48 h (L1210) or 72 h (CEM) and were then counted in a Coulter counter. The 50% inhibitory concentration (IC50) was defined as the compound concentration required to reduce cell proliferation by 50%. The cytostatic activity of the compounds was determined after 3 days, as outlined above.

The test system of test [3] is MCF7. The test is described as follows: MTT cytotoxicity assay, MCF7. The settings on record: Homo sapiens, 96 h compound exposure, read-out: absolute IC50, MCF7. The test is classed as cell-based.
Source text: as §1
(§3) Anti-tumour evaluation in MCF7, LoVo, A549 and PC3 cell lines was performed by MTT assay. Compounds were prepared as 0.1-100 mM stock solutions dissolved in DMSO and stored at −20° C. Cells were seeded into 96-well microtitre plates at a density of 5×10^3 cells per well and allowed 24 hours to adhere. Decimal compound dilutions were prepared in medium immediately prior to each assay (final concentration 0.1-100 μM). Experimental medium was DMEM+10% FCS (PC3 and Lovo) or RPMI+10% heat inactivated FCS (A549 and MCF7). Following 96 h compound exposure at 37° C., 5% CO2, MTT reagent (Sigma Aldrich) was added to each well (final concentration 0.5 mg/ml). Incubation at 37° C. for 4 h allowed reduction of MTT by viable cells to an insoluble formazan product. MTT was removed and formazan solubilised by addition of 10% Triton X-100 in PBS. Absorbance was read on a Tecan Sunrise spectrophotometer at 540 nm as a measure of cell viability; thus inhibition relative to control was determined (IC50).
Background: Tetrazolium assays rely on reduction of a dye to a coloured formazan, in cell work by metabolically active cells.

The subject of test [4] is Lovo. The experiment in a line: MTT cytotoxicity assay, Lovo. The settings on record: Homo sapiens, 96 h compound exposure, read-out: absolute IC50, Lovo. Type of test: cell-based.
Source text: as §1, §3

Test [5] concerns A549. The test is described as follows: MTT cytotoxicity assay, A549. To be noted: Homo sapiens, 96 h compound exposure, read-out: absolute IC50, A549. Type of test: cell-based.
Source text: as §1, §3

Test [6] relates to human T-lymphocyte CEM. The test is described as follows: Cell proliferation (Coulter count) assay, CEM. The test is classed as cell-based. The settings on record: 72 h, read-out: absolute IC50, CEM.
Source text: as §1, §2

Test [7] has as its system human cervix carcinoma HeLa cells. The experiment in a line: Cell proliferation (Coulter count) assay, HeLa. Type of test: cell-based. To be noted: 120 h, cell count on day 5, read-out: absolute IC50, HeLa.
Source text: as §1, §2

For test [8], the system named is PC3. The test is described as follows: MTT cytotoxicity assay, PC3. Type of test: cell-based. To be noted: Homo sapiens, PC-3, 96 h compound exposure, read-out: absolute IC50, PC3.
Source text: as §1, §3

The subject of test [9] is K562. The test is described as follows: CellTiterGlo viability assay, K562. Type of test: cell-based. To be noted: Homo sapiens, K562, 72 h, read-out: IC50 K562. Here is the method:
(§4) In vitro viability assay were performed to assess the effects of compounds on cell viability in selected cell lines over ˜72 hrs using the CellTiterGlo (CTG, Promega-G7573) assay. The tests were performed in duplicates with treatment of compounds at 9 points, 3.16 folds titration in 96 well plates over ˜72 hrs. The compound starting concentrations were 198 μM. Cell viability assay using CellTiterGlo in 96-well plate were performed. Compound treatment 72 hrs, standard growth conditions, duplicates. Compounds were dissolved to 40 mM with thawed […]. Compounds were serially diluted at 3.16 fold in thawed DMSO, and warmed to 37° C. before being dissolved in media (2 μl+200 μl). After compounds were dissolved in media, media containing compounds were warmed to 37° C. in incubator and then compounds in media were added to cell plates (50 μl+50 μl) in duplicates. The compounds' final concentrations were from […] to 19.9 nM. All compound solubilities were checked and recorded again, then the plates were transferred to CO2 tissue culture incubator immediately and incubated for 3 days. DMSO final concentration is 0.5%.

Test [10] concerns MV4-11. The test is described as follows: CellTiterGlo viability assay, MV4-11. Type of test: cell-based. To be noted: Homo sapiens, MV4-11, 72 h, read-out: IC50 MV4-11. On the procedure:
as §4

Test [11] has as its system HL-60. The test is described as follows: CellTiterGlo viability assay, HL-60. Type of test: cell-based. To be noted: Homo sapiens, HL-60, 72 h, read-out: IC50 HL-60. Here is the method:
as §4
(In general: ATP-based viability assays read luminescence as a measure of living cells.)

Test [12] relates to RL. The experiment in a line: CellTiterGlo viability assay, RL. The settings on record: Homo sapiens, RL, 72 h, read-out: IC50 RL. Type of test: cell-based. Here is the method:
as §4

In test [13] the test system is CCRFCEM. The experiment in a line: CellTiterGlo viability assay, CCRFCEM. The test is classed as cell-based. To be noted: Homo sapiens, CCRF-CEM, 72 h, read-out: IC50 CCRFCEM. Here is the method: as §4
The subject of test [14] is KG-1. The test is described as follows: CellTiterGlo viability assay, KG-1. The test is classed as cell-based. The settings on record: Homo sapiens, KG-1, 72 h, read-out: IC50 KG-1. On the procedure: as §4
Test [15] has as its system MDAMB231. The test is described as follows: CellTiterGlo viability assay, MDAMB231. The test is classed as cell-based, Human. Here is the method:
as §4

Test [16] relates to RPMI-8226. The experiment in a line: CellTiterGlo viability assay, RPMI-8226. Type of test: cell-based, Human. The settings on record: Homo sapiens, RPMI-8226, 72 h, read-out: IC50 RPMI-8226. Here is the method:
as §4

The subject of test [17] is HEL92.1.7. The experiment in a line: CellTiterGlo viability assay, HEL92.1.7. The settings on record: Homo sapiens, HEL 92.1.7, 72 h, read-out: IC50 HEL92.1.7. Type of test: cell-based. Here is the method:
as §4

Test [18] concerns NCI-H929. The experiment in a line: CellTiterGlo viability assay, NCI-H929. The test is classed as cell-based. To be noted: Homo sapiens, NCI-H929, 72 h, read-out: IC50 NCI-H929. Here is the method:
as §4

The subject of test [19] is MCF7. The experiment in a line: CellTiterGlo viability assay, MCF7. Type of test: cell-based. To be noted: Homo sapiens, MCF7, 72 h, read-out: IC50 MCF7. Here is the method: as §4

Broadly, the pIC50 is the negative decadic logarithm of the IC50, by convention in mol/L. For the molecule `CC(C)[C@H](NP(=O)(OC[C@H]1O[C@@H](n2c(Cl)nc3c(N)ncnc32)C(O)C1O)Oc1ccccc1)C(=O)OCc1ccccc1` (stereo partly drawn) [AA, 5′-([(Benzyloxy-L-valin-N-yl)-phenyl]-phosphatyl) 8-chloroadenosine], the pIC50 in test [1] was 4.00 to 4.82; in [2] it was 4.00 to 4.82; in test [3] it was 5.30 to 7.00; in test [4], 5.30 to 7.00; in test [5], 4.00 to 4.82; in test [6], 4.00 to 4.82. Also, the values for the pIC50 in test [7] and in test [8] were 4.82 to 5.30 and 4.00 to 4.82, respectively.
Consider `CC(C)C[C@H](NP(=O)(OC[C@H]1O[C@@H](n2c(Cl)nc3c(N)ncnc32)C(O)C1O)Oc1cccc2ccccc12)C(=O)OCc1ccccc1` (stereo partly drawn) [H, 5′-([(Benzyloxy-L-leucin-N-yl)-naphth-1-yl]-phosphatyl) 8-chloroadenosine], for which the negative-log IC50 (pIC50) in [9] is 5.30 to 7.00; in test [10], 5.30 to 7.00; in [11], 4.82 to 5.30; in [12], 4.00 to 4.82; in test [13], 4.82 to 5.30; in [14], 4.82 to 5.30. The pIC50 in test [15] (Homo sapiens, MDA-MB-231, 72 h, read-out: IC50 MDAMB231) is 4.82 to 5.30; in test [2], 4.82 to 5.30; in [16], 5.30 to 7.00; in test [17] it was 5.30 to 7.00; in [18], 5.30 to 7.00; in test [19], 5.30 to 7.00. Further, the pIC50 in test [6] and in test [7] was 5.30 to 7.00 in each case. The “MI% MDAMB231” value in [15] (CellTiterGlo, 72 hrs) was 99%.
Consider `C[C@@H](NP(=O)(OC[C@H]1O[C@@H](n2c(Cl)nc3c(N)ncnc32)C(O)C1O)Oc1ccccc1)C(=O)OCc1ccccc1` (stereo partly drawn) [T, 5′-([(Benzyloxy-D-alanin-N-yl)-phenyl]-phosphatyl) 8-chloroadenosine], for which the pIC50 was 4.00 to 4.82 in test [1]; 4.00 to 4.82 in [2]; 4.00 to 4.82 in [3]; 5.30 to 7.00 in [4]; 4.00 to 4.82 in test [5]; 4.00 to 4.82 in test [6]. The pIC50 in test [7] was 4.82 to 5.30; in [8], 5.30 to 7.00.
As to `Nc1ncnc2c1nc(Cl)n2[C@@H]1O[C@H](COP(=O)(N[C@@H](Cc2ccccc2)C(=O)OCc2ccccc2)Oc2ccccc2)C(O)C1O` (stereo partly drawn) [U, 5′-([(Benzyloxy-L-phenylalanin-N-yl)-phenyl]-phosphatyl) 8-chloroadenosine], the pIC50 is 4.00 to 4.82 in test [1]; 4.00 to 4.82 in [2]; 5.30 to 7.00 in test [3]; 5.30 to 7.00 in test [4]; 5.30 to 7.00 in test [5]; 4.82 to 5.30 in test [6]. Besides, the pIC50 in test [7] and in [8] was 5.30 to 7.00 in each case.
Regarding `CC(C)OC(=O)[C@H](C)NP(=O)(OC[C@H]1O[C@@H](n2c(Cl)nc3c(N)ncnc32)C(O)C1O)Oc1ccccc1` (stereo partly drawn) [W, 5′-([(Isopropyloxy-L-alanin-N-yl)-phenyl]-phosphatyl) 8-chloroadenosine], the pIC50 in [1] was 4.00 to 4.82; in test [2], 4.00 to 4.82; in [3], 4.00 to 4.82; in test [4], 5.30 to 7.00; in test [5], 4.00 to 4.82; in test [6], 4.00 to 4.82. Moreover, the pIC50 in test [7] was 4.00 to 4.82; in test [8] it was 5.30 to 7.00.
In the case of `CC(C)(C)COC(=O)C(C)(C)NP(=O)(OC[C@H]1O[C@@H](n2c(Cl)nc3c(N)ncnc32)C(O)C1O)Oc1ccccc1` (stereo partly drawn) [Y, 5′-([(Neopentyloxy-2,2-dimethylglycin-N-yl)-phenyl]-phosphatyl) 8-chloroadenosine], the pIC50 was 4.00 to 4.82 in test [1]; 4.00 to 4.82 in test [2]; 4.00 to 4.82 in test [3]; 5.30 to 7.00 in test [4]; under 4.00 in test [5]; 4.00 to 4.82 in test [6]. Further, the pIC50 was 4.00 to 4.82 in [7] and 5.30 to 7.00 in test [8].
Consider `COC(=O)[C@H](CCSC)NP(=O)(OC[C@H]1O[C@@H](n2c(Cl)nc3c(N)ncnc32)C(O)C1O)Oc1ccccc1` (stereo partly drawn) [Z, 5′-([(Methyloxy-L-methionine-N-yl)phenyl]-phosphatyl) 8-chloroadenosine], for which the pIC50 in test [1] is under 4.00; in test [2], 4.00 to 4.82; in [3], 4.00 to 4.82; in test [4] it was 4.00 to 4.82; in [5], under 4.00; in [6], 4.00 to 4.82. Besides, the pIC50 in test [7] and in test [8] was 4.00 to 4.82 each time.
